Data from US20200352976A1, “HYPOMETHYLATING AGENTS FOR USE IN TREATMENT OF CANCER” (Otsuka Pharmaceutical Co., Ltd, priority 2019, published 2020).

Key:
[1] = system: intermediate-risk or high-risk myelodysplastic syndromes (MDS) or chronic myelomonocytic leukemia (CMML); assay: Phase 1/2 trial (Phase 2 portion) with subgroup and landmark analyses: response, survival, transfusion independence; assay type: in vivo, human; details: for Median survival: all 102 patients
Description: A multicenter, open-label, randomized, phase 1/2 trial was performed with Compound I-1 to compare the activity and safety of two doses of Compound I-1 in hypomethylating agent treatment naïve or relapsed or refractory patients with intermediate-risk or high-risk myelodysplastic syndromes.
Patients enrolled in the study were aged 18 years or older, with a confirmed diagnosis of IPSS intermediate-1, intermediate-2, or high-risk myelodysplastic syndromes (MDS), or chronic myelomonocytic leukemia (CMML). Patients were either hypomethylating agent treatment-naïve or had relapsed or refractory disease after previous hypomethylating agent treatment as determined by the investigators' judgment (two or more complete full-dose cycles of a hypomethylating agent). The IPSS score in patients with relapsed or refractory myelodysplastic syndromes had been established at the time of their initial diagnosis. Eligible patients had Eastern Cooperative Oncology Group performance status of 0-2; adequate renal function (serum creatinine ≤1.5-times the upper limit of normal [ULN]) and adequate hepatic function (total bilirubin ≤2-times the ULN, and aspartate and alanine transaminases ≤2.5-times the ULN); had not undergone major surgery within 4 weeks or hemopoietic stem-cell transplantation within 8 weeks; or received chemotherapy within 2 weeks or nitrosoureas within 6 weeks of Compound I-1 treatment (hydroxycarbamide was allowed during treatment cycle 1). A patient with previous allogeneic stem-cell transplants was only eligible if the patient had no evidence of active graft-versus-host disease and had discontinued immunosuppressive therapy 2 weeks or more before receiving the study drug.
Patients received subcutaneous Compound I-1 at 60 or 90 mg/m^2 on days 1-5 of a 28-day treatment cycle. The intention was to provide the standard planned dose for four or more cycles; dose reduction could be instituted, as necessary, and the length of treatment cycles could be extended up to 42 days to allow for bone-marrow recovery in cases of severe cytopenia. Additional delay or dose reduction was allowed for recovery from toxicity in previous cycles based on the physician's judgment.
Hematological responses were monitored by analysis of blood and bone marrow aspiration. After the initial bone marrow aspirate screening at baseline, the results of peripheral blood assessments determined the frequency of subsequent bone marrow aspiration to confirm response or assess drug-related bone marrow toxicity. Complete peripheral blood counts and white blood cell differentials were measured at least once a week, including granulocyte numbers, platelet numbers, and hemoglobin concentration.
The primary endpoint was overall response, which was a composite of complete response (CR), partial response, marrow complete response (mCR), and hematological improvement. Overall response was assessed by local investigators. Secondary endpoints included the individual components of overall response, time to response, duration of response, overall survival, blood transfusion and platelet transfusion independence at weeks 8 and 16, and safety, including the incidence of adverse events, and all-cause early mortality at 30, 60, and 90 days. Exploratory analyses were done to examine the association between baseline characteristics and overall response.
Activity and safety endpoints were evaluated for all patients who received at least one dose of study drug, and no patients who received treatment were excluded from the analyses. […] Time to response and duration of response were summarized in days using descriptive statistics. Overall survival was analyzed using the Kaplan-Meier method, with survival time censored on the last date of contact if the patient was alive or lost to follow-up. Blood and platelet transfusion independence were summarized descriptively in the subset of patients who were transfusion-dependent at baseline. […]

[2] = Phase 2 study in relapsed/refractory AML: safety; design: species or system human; details: in vivo
Description: A Phase 2 study of Compound I-1 using different regimens and doses (randomized 5-day regimen cohorts of 60 mg/m^2/d vs 90 mg/m^2/d SC) and a cohort of 10-day regimen in the first 1-4 cycles at 60 mg/m^2/d followed by subsequent cycles of 5-day regimen) was conducted as described above. Response and duration of response were assessed using IWG 2003 criteria: Complete Response (CR), CR with incomplete platelet recovery (CRp), and CR with incomplete count recovery (CRi). CR+CRp+CRi was defined as composite CR (CRc). Overall survival (OS) was assessed using the Kaplan-Meier (KM) method. Response status for each dose/regimen cohort and the overall treated population were assessed with analyses of duration of response and long-term survival.

[3] = landmark analysis, at least 4 cycles (65 patients)

Nc1ncn([C@H]2CC(OP(=O)(O)OC[C@H]3O[C@@H](n4cnc5c(=O)[nH]c(N)nc54)CC3O)[C@@H](CO)O2)c(=O)n1 (stereo partly drawn) [Compound I-1]
12-month survival ([1]; 60 mg/m^2): 67%
24-month survival ([1]; 60 mg/m^2): 39%
Duration of response ([1]; 60 mg/m^2): 295 days
Median overall survival ([1]; 60 mg/m^2): 611 days
Partial response ([1]; 60 mg/m^2 (n = 53)): 0 patients
12-month survival ([1]; 90 mg/m^2): 60%
24-month survival ([1]; 90 mg/m^2): 30%
Duration of response ([1]; 90 mg/m^2): 207 days
Median overall survival ([1]; 90 mg/m^2): 399 days
Partial response ([1]; 90 mg/m^2 (n = 49)): 0 patients
Median survival ([1]; 4 or more treatment cycles): 20.4 months
OS ([1]; 6 or more treatment cycles): 23.8 months
OS hazard ratio ([1]; 6 or more vs less than 6 treatment cycles): 0.41
Partial response ([1]; All patients (n = 102)): 0 patients
Median OS ([1]; Baseline BM Blasts >5%): 12.3 months
Median OS ([1]; Baseline BM Blasts ≤5%): 22.7 months
Median OS ([1]; Baseline ECOG PS 0-1): 15.6 months
Median OS ([1]; Baseline ECOG PS 2): 8.7 months
Median OS ([1]; Baseline RBCs Transfusion Dependent): 11.7 months
Median OS ([1]; Baseline RBCs Transfusion Independent): 20.4 months
Partial response ([1]; Relapsed or refractory (n = 53)): 0 patients
Median OS ([1]; TN MDS/CMML patients): 23.4 months
Partial response ([1]; Treatment-naïve (n = 49)): 0 patients
Survival hazard ratio ([1]; at least 4 vs less than 4 treatment cycles): 0.55
Median duration of complete, partial or marrow complete response ([1]; entire population): 203 days
Median overall survival ([1]; entire study population): 460 days
Median OS ([1]; landmark analysis, <4 cycles): 15.2 m
Objective response (OR) rate ([1]; landmark analysis, <4 cycles (26 patients)): 15%
Median OS ([1]; landmark analysis, <6 cycles): 13.6 m
Objective response (OR) rate ([1]; landmark analysis, <6 cycles (43 patients)): 26%
Median OS ([1]; landmark analysis, at least 4 cycles): 20.4 m
Objective response [1, 3]: 44 patients
Objective response (OR) rate [1, 3]: 68%
OS HR ([1]; landmark analysis, at least 4 vs <4 cycles): 0.78
Median OS ([1]; landmark analysis, at least 6 cycles): 23.8 m
Objective response (OR) rate ([1]; landmark analysis, at least 6 cycles (44 patients)): 82%
OS HR ([1]; landmark analysis, at least 6 vs <6 cycles): 0.51
OS HR ([1]; landmark, absence of objective response, at least 4 vs <4 cycles): 0.82
OS HR ([1]; landmark, absence of objective response, at least 6 vs <6 cycles): 0.42
Median survival ([1]; less than 4 treatment cycles): 8.7 months
OS ([1]; less than 6 treatment cycles): 9.1 months
Median time to response ([1]; patients with CR or marrow CR, entire study population): 85 days
Median OS ([1]; r/r MDS/CMML patients): 11.7 months
2-year survival rate ([1]; relapsed or refractory cohort): 25%
Median overall survival ([1]; relapsed or refractory cohort): 352 days
Median overall survival ([1]; relapsed/refractory, 60 mg/m^2): 9.1 months
Median overall survival ([1]; relapsed/refractory, 90 mg/m^2): 12.3 months
2-year survival rate ([1]; treatment-naïve cohort): 44%
Median overall survival ([1]; treatment-naïve cohort): 703 days
Grade 3 or higher AEs related to the drug [2]: 42%
Related serious AEs leading to death [2]: no related serious AEs leading to death
